Reference: patent US5959145A, “Fatty acid analog enzyme substrates” (priority 1993, dated 1999)

System: wheat germ NMT
Assay: in vitro myristoylation assay with partially purified wheat germ NMT
Type: biochemical
Conditions: fatty acid or analog at 5 μM, peptide varied; read-out: Km of peptide substrate Gly-Asn-Ala-Ala-Ser-[125I]Tyr-Arg-Arg
Description: Myristoyl CoA and fatty acid analog CoA were generated by incubation of the fatty acid or analog with CoA, ATP and CoA ligase. This reaction mixture was added to wheat germ NMT and Gly-Asn-Ala-Ala-Ser- [^125 I]Tyr-Arg-Arg in the presence of 0.03% Triton® X-100. Reaction products were characterized by reverse phase HPLC and gamma counting.
The invention is illustrated in greater detail in the following Examples 1 to 15 by the synthesis and testing of representative compounds of the invention as myristoylating enzyme substrates. Accordingly, the invention is first illustrated in Examples 1 to 5 by the chemical synthesis of a sulfur-containing analog of myristic acid, namely 11-(ethylthio)undecanoicacid, CH3 CH2 --S--(CH2)10 COOH, which is then tested in vitro as a wheat germ NMT substrate. Wheat germ NMT is a protein similar to yeast NMT. The purity and chemical identity of the synthesized compound were examined using ^1 H and ^13 C NMR as well as mass spectroscopy. The assay that was used to characterize the substrate specificity of wheat germ NMT measures the rate of attachment of a radiolabelled fatty acid to an unlabelled peptide. The fatty acid analog synthesized was nonradioactive.
Characterization of Partially Purified Wheat Germ NMT--Assays for NMT activity were performed using a procedure detailed previously by Towler and Glaser, Proc. Natl. Acad. Sci. USA 83, 2812-2816 (1986). Briefly, the in vitro assay measures the transfer of radiolabelled fatty acid from acyl CoA to a synthetic peptide substrate. The acylpeptide product is identified by reverse phase HPLC. Time and enzyme dependence were evaluated by varying the reaction time or the enzyme concentration. […] Fatty acid specificity was examined essentially as described by Towler et al., J. Biol. Chem. 262, 1030-1036 (1987), except that the peptide Gly-Ser-Ser-Lys-Ser-Lys-Pro-Lys rather than Gly-Asn-Ala-Ala-Ala-Ala-Arg-Arg was used to compare palmitate and myristate utilization by wheat germ NMT. This was necessary because of the presence of a large, peptide-independent peak which co-eluted with a palmitoyl-Gly-Asn-Ala-Ala-Ala-Ala-Arg-Arg standard. [^3 H]Palmitate and [^3 H]myristate were used in this comparison. [^14 C]fatty acids were used to compare C-10, C-12 and C-14 chain lengths. Fatty acyl CoA concentrations in these assays were determined by a modification of the method of Hosaka et al., Methods Enzymol. 71, 325-333 (1981).
Characterization of the Fatty Acid Analog--Gly-Asn-Ala-Ala-Ser-[^125 I]Tyr-Arg-Arg as prepared in Example 2, above, was tested in an in vitro myristoylation system which was modified from that used with radiolabelled fatty acids. […] 20-fold more wheat germ NMT (480-fold purified as in Example 3, above) was used for these assays than for assays which employed [^3 H] myristate. […] Double reciprocal plots were generated for the iodinated peptide with both myristic acid and the sulfur analog by altering the peptide concentration in the presence of a constant amount of fatty acid or analog. […] The assays contained 0.03% Triton X-100 to maintain the solubility of the fatty acids.

SMILES: CCCCCCCCCCCCCC(=O)O [myristic acid, reference compound]
- Km: 3 µM
